Laboratory results: patent EP0326490B2, “Synthetic peptides and mixtures thereof for detecting HIV antibodies” (ADALTIS INC., priority 1988, dated 2004)
Positions of bridges follow the written chain, without caps; N, C: chain ends. Residues, ends and D or L forms follow the SMILES beside them. No end group written: not given here.

Tests used:
HIV-1 positive sera [1] = details: cited from earlier work; for HIV-1 positive sera reacting of sera tested: J. Virol. 61, 2639-2641, 1987
HIV-1 positive sera [2] = assay: ELISA, single peptides identifying HIV-1 positive sera; assay type: binding, human; details: single gp41 or gp120 peptide
Method: According to this test a peptide or a peptide mixture of the present invention is adsorbed onto the wells of a microtiter plate. The wells are then treated with sera to be tested. After washing, anti-human IgG labeled with peroxidase is added to the wells. The determination of the peroxidase is performed with a corresponding substrate, e.g. with o-phenylene diamine. Also in this procedure the peroxidase can be exchanged by another label, e.g. by a radioactive or fluorescence label.
Each well of the microtiter plate is saturated with 100 µl of a solution containing a peptide or mixture of peptides (5 µg/ml) and left overnight. The wells are emptied and washed twice with a washing buffer (Tris, 0.043M; NaCl, 0.5M;thimerosal, 0.01% w/v; Tween 20, 0.05% v/v; pH 7.4). The wells are then saturated with […] of washing buffer for 1 hr. at 37°C and washed once with the same buffer. Serum samples to be analyzed are diluted with specimen buffer (washing buffer plus casein, 0.05% w/v). The bells are rinsed with washing buffer prior to the addition of the diluted serum sample (0.1 ml). These are left to incubate for 1 hr. at room temperature. The wells are then emptied, washed twice rapidly and then once for two minutes with washing buffer. […] The wells are then emptied and washed twice rapidly with washing buffer and then five times in which the buffer was in contact with the well 2 minutes per washing. The substrate solution (3,3', 5,5'-tetramethylbenzidine, 8 mg per ml of DMSO) is diluted with 100 volumes 0.1 M citrate-acetate buffer, pH 5.6 containing 0.1% v/v of 30% H2O2 and added to each well (0.1 ml per well). After 10 minutes the contents of each well is treated with 0.1 ml 2N H2SO4 and the optical density read at 450 nm. All determinations are done in duplicate.

[3] = Stability of linear and cyclic peptide in coating buffers (HPLC, Ellman's test); assay type: physicochemical
Source text: Even though results presented in TABLE 5 clearly show the superiority of cyclic peptides over their linear counterpart in detecting HIV-1-antibodies, that increased sensitivity could have been underestimated because of probable cyclization and polymerization of the linear peptide after solubilization in a carbonate buffer (pH 9.6). That experiment was repeated with the linear 87 and cyclic 87c peptides dissolved in a carbonate buffer (pH 9.6) as before and also in 10% acetic acid (pH 2.7). […] It is believed that cyclization and polymerization also occured in the wells of the microtiter plates although the exact proportion of cyclic peptide bound to the plates versus linear has not been as yet determined.

## SGKLICTTAVPWNAS [short synthetic peptide covering residues 606 to 620 of gp41 (HIV-1)]
HIV-1 positive sera [1]; US Patent Appl. No. 120,027
  specificity (samples correctly identified of samples tested): 63/63
HIV-1 positive sera [1]; prior-art reports, HIV-1 seropositive samples
  sensitivity: 89%

## 88: cyclic peptide, amino acid positions 590-620 of gp41-HIV-1 (QQLLGIWGCSGKLICTTAVPWNASWSNKSLE; disulfide 9-15 (inferred); UniProt P04578 590-620, looked up, fragment) [Peptide 88]
HIV-1 positive sera [2]
  % Positive Sera correctly Idenfitied: 100%

## 12-amino acid sequence (600-611): 12-amino acid sequence (600-611) from gp41-(HIV-1), Gnann et al. (GKLICTTAVPWN; Transmembrane protein gp41; UniProt P04578 600-611, looked up, fragment)
HIV-1 positive sera [1]; Gnann et al., J. Infect. Dis. 156, 261-267, 1987, patients from the United States
  HIV-1 infected patients reactive of patients tested: 131 out of 132
HIV-1 positive sera [1]; Gnann et al.
  HIV-1 positive sera reacting of sera tested: 22 out of 22
HIV-1 positive sera [1]; tests at the Centers for Disease Control, Atlanta
  positive sera detected of sera tested: 78 out of 79

## CC[C@H](C)[C@H](NC(=O)CNC(=O)[C@H](CC(C)C)NC(=O)[C@H](CC(C)C)NC(=O)[C@H](CCC(N)=O)NC(=O)[C@H](CCC(N)=O)NC(=O)[C@H](CC(=O)O)NC(=O)[C@H](CCCCN)NC(=O)[C@H](CC(C)C)NC(=O)[C@H](Cc1ccc(O)cc1)NC(=O)[C@H](CCCNC(=N)N)NC(=O)[C@H](CCC(=O)O)NC(=O)[C@@H](NC(=O)[C@H](C)NC(=O)[C@H](CC(C)C)NC(=O)[C@@H](NC(=O)[C@@H](N)CCCNC(=N)N)[C@@H](C)CC)C(C)C)C(=O)N[C@@H](Cc1c[nH]c2ccccc12)C(=O)NCC(=O)N[C@@H](CS)C(=O)N[C@@H](CO)C(=O)NCC(=O)N[C@@H](CCCCN)C(=O)N[C@@H](CC(C)C)C(=O)N[C@H](C(=O)N[C@@H](CS)C(=O)N[C@H](C(=O)N[C@H](C(=O)N[C@@H](C)C(=O)N[C@H](C(=O)N1CCC[C@H]1C(=O)N[C@@H](Cc1c[nH]c2ccccc12)C(=O)N[C@@H](CC(N)=O)C(=O)N[C@@H](C)C(=O)N[C@@H](CO)C(=O)O)C(C)C)[C@@H](C)O)[C@@H](C)O)[C@@H](C)CC [Peptide 87] (H-RILAVERYLKDQQLLGIWGCSGKLICTTAVPWNAS-OH)
[3]; 10% acetic acid (pH 2.7)
  stability in solution (HPLC, Ellman's test): remained linear
[3]; carbonate buffer (pH 9.6), room temperature
  stability in solution (HPLC analysis): underwent cyclization and polymerization

## 96: cyclic peptide, amino acid positions 604-629 of gp41-HIV-1 (CTTAVPWNASWSNKSLEQIWNHTTWM; also: cyclic peptide, ring not given here; UniProt P04578 604-629, looked up, fragment) [Peptide 96]
HIV-1 positive sera [2]
  % Positive Sera correctly Idenfitied: 100%

## SGKLIC
HIV-1 positive sera [1]; Gnann et al.
  HIV-1 positive sera reacting of sera tested: not immunoreactive with any of the 22 HIV-1 positive sera tested

## H-CGKIEPLGVAPTKAKRRVVQREKR-OH [Peptide 71]
HIV-1 positive sera [2]
  % Positive Sera correctly Idenfitied: 83%
